Measurements taken from patent US20250025445A1, “METHOD OF CARDIOPROTECTION” (Race Oncology LTD., priority 2021, published 2025).

System: H929 multiple myeloma cells
Assay: H929 multiple myeloma cell viability (CellTiter-Glo)
Assay type: cell-based, human
Details: 72 hours, FIG. 4
Experimental: Human multiple myeloma NCI-H929 cells were cultured using RPMI-1640 growth media (Sigma-Aldrich), supplemented with 2 mM L-glutamine (Thermo Fisher Scientific), 10% (v/v) foetal calf serum (Sigma-Aldrich) and 0.05 mM 2-mercaptoethanol (Sigma-Aldrich). Briefly, 0.5×10^6 H929 were seeded and grown in Corning® T75 flasks (Sigma-Aldrich) in an incubator at 37° C. under 5% CO2 conditions. At 80-90% confluency, the cell suspension was then collected into Corning® 50 mL centrifuge tubes (Sigma-Aldrich) and centrifuged at 300×g for 10 mins at room temperature. The resulting supernatant were discarded and H929 pellet was resuspended with 5-10 mL of pre-warmed H929 growth media. Total viable cells were enumerated with Invitrogen™ Countess Cell Counter (Thermo Fisher Scientific, New South Wales, Australia) and 1×10^4 live H929 were seeded in triplicate into Corning® 96-well white polystyrene microplate (Sigma). […] The concentrations were as follows 0 nM, 15.62 nM, 62.5 nM, 250 nM, 500 nM, 1 μM, 5 μM, and 10 μM. […] Vehicle controls were incubated with media supplemented with either sterile water or DMSO. […] This was repeated at 48 hours and 72 hours. […] Both FB23/2 and brequinar (MedChemExpress) were dissolved in dimethyl sulfoxide (DMSO; […]

## C(=NNC1=NCCN1)c1c2ccccc2c(C=NNC2=NCCN2)c2ccccc12 [bisantrene, 9,10-anthracenedicarboxaldehyde bis [(4,5-dihydro-1H-imidazol-2-yl)hydrazone]]
0-5 μM bisantrene alone
  toxicity to H929 multiple myeloma cells: concentration-dependent toxicity
0-5 μM bisantrene with 1 μM carfilzomib
  interference with toxicity of carfilzomib to H929 cells: did not interfere with the toxicity
